Measured values as given in patent US10221426B2, “Constitutively active PYR/PYL receptor proteins for improving plant stress tolerance” (The Regents of the University of California, priority 2009, dated 2019).

Target: T1, PYL1-HAB1 (Arabidopsis thaliana, UniProt Q8VZS8)
T1 construct: BD-PYR/PYL fusion proteins were constructed in the same manner as for BD-PYR1 above; expressed in transfected cells; host or cells: yeast (Y190, as for BD-PYR1)
T1 sequence (Q8VZS8 1-221): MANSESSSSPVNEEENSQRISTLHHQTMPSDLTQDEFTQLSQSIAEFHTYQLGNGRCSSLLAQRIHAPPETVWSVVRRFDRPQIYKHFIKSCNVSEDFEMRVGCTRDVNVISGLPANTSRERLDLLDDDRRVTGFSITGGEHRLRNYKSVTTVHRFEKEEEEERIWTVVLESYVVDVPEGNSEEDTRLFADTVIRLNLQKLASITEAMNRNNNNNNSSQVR
T1 sequence (Q9CAJ0 23-511 partner): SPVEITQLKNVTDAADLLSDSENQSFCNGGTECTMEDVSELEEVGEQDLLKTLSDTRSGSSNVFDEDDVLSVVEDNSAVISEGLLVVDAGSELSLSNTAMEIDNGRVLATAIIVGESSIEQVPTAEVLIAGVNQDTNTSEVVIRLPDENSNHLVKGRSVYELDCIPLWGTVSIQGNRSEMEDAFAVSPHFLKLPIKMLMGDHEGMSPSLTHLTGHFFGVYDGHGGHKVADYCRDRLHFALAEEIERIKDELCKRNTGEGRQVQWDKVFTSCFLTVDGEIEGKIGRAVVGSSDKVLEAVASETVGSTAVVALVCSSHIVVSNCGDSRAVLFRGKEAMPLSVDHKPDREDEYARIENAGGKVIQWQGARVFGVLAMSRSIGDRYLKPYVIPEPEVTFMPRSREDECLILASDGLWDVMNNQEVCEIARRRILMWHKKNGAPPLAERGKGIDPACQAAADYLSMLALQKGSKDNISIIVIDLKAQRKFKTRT
Test: Yeast two-hybrid BD-PYL1 / AD-HAB1 interaction, X-gal stain
Assay type: cell-based
Settings: 10 μM
Protocol: Given that PYR1 is necessary for pyrabactin action and is a predicted ligand-binding protein, we hypothesized that pyrabactin agonizes ABA signaling by inducing a protein-protein interaction between PYR1 and a downstream effector. To test this, ˜2 million prey cDNA clones were screened against a PYR1 Y2H bait construct on media containing 10 μM pyrabactin. To create the PYR1 Y2H bait construct, the Pyr1 open reading frame was PCR amplified from genomic DNA and cloned to pGem-T easy vector (Promega). After sequence confirmation, the Pyr1 ORF was then cloned in-frame between EcoRI and SalI sites of the pBD-GAL4 Cam vector (Stratagene) and transformed into yeast strain Y190. For the screen, an etiolated seedling cDNA library (J. Kim, K., Harter, A., Theologis, Proc Natl Acad Sci USA 94, 11786 (Oct. 28, 1997)) (ABRC stock CD4-22) was used. The cDNA library was first converted from phage to plasmid DNA, yielding 7.6×10^7 transformants. Plasmid DNA prepared from library was then used to transform Y190 as described in the GAL4 Two-Hybrid system manual (Stratagene). […] This identified two pyrabactin-dependent hits which sequencing determined encoded cDNAs for the PP2C HAB1, a close relative of the well-characterized ABA response factor ABI1 (A. Saez et al., The Plant Journal 37, 354 (2004); N. Leonhardt et al., THE PLANT CELL 16, 596 (2004)). […]

Row | SMILES | PYL1-HAB1 interaction by X-gal stain
1 | CC1=CC(=O)CC(C)(C)[C@@]1(O)/C=C/C(C)=C\C(=O)O [ABA, Abscisic acid] | interact with HAB1 in an ABA-stimulated manner
2 | O=S(=O)(NCc1ccccn1)c1ccc(Br)c2ccccc12 [pyrabactin] | promotes interactions
